In PubChem BioAssay (NCI):
Several values for one entry are separate records, joined by “and”; a condition that tells them apart may be missing. Equal values may be shown once.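 Test compounds were applied to cells in 96-well plates for 48 hours at 5 doses. At the GI50, growth is halved. TGI: total growth inhibition.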

Assays:
Assay in all cases: NCI-60 cell line screen, 48 h
UACC-62 melanoma = test system: UACC-62 melanoma
HCC-2998 colon = test system: HCC-2998 colon
TK-10 renal = test system: TK-10 renal
COLO 205 colon = test system: COLO 205 colon
UO-31 renal = test system: UO-31 renal
M14 melanoma = test system: M14 melanoma
SF-295 CNS = test system: SF-295 CNS
IGROV1 ovarian = test system: IGROV1 ovarian
HCT-15 colon = test system: HCT-15 colon
PC-3 prostate = test system: PC-3 prostate

SMILES	GI50 (UACC-62 melanoma)	TGI (UACC-62 melanoma)	GI50 (HCC-2998 colon)	TGI (HCC-2998 colon)	GI50 (TK-10 renal)	TGI (TK-10 renal)	GI50 (COLO 205 colon)	TGI (COLO 205 colon)	GI50 (UO-31 renal)	TGI (UO-31 renal)	GI50 (M14 melanoma)	TGI (M14 melanoma)	GI50 (SF-295 CNS)	TGI (SF-295 CNS)	GI50 (IGROV1 ovarian)	TGI (IGROV1 ovarian)	GI50 (HCT-15 colon)	TGI (HCT-15 colon)	GI50 (PC-3 prostate)	TGI (PC-3 prostate)
N#Cc1nc2cc(F)c(F)cc2nc1-c1ccc(Cl)cc1	0.645 µM	7.17 µM	3.93 µM	17.6 µM	22.4 µM	67.3 µM	26.9 µM	> 100 µM	12.2 µM	38.1 µM	7.93 µM	23.8 µM	12.2 µM	38.9 µM	0.673 µM	2.31 µM	1.44 µM	2.76 µM	4.27 µM	20.2 µM
CC1=C(C(=O)Nc2ccc(F)c(Cl)c2)C(c2cccc(Oc3ccccc3)c2)NC(=O)N1 (stereo not drawn)	12.4 µM	24.8 µM	14.6 µM	27.8 µM	8.67 µM	21.7 µM	14.2 µM	29.6 µM	12.2 µM	26 µM	15.2 µM	29.3 µM	22.1 µM	57 µM	10.7 µM	24.2 µM	15.4 µM	28.9 µM	10.5 µM	22.3 µM
CCCCCCCCCCCC[n+]1ccc(C(N)=O)cc1	2.74 µM	11.6 µM	2.71 µM	10.9 µM	1.73 µM	4.26 µM	1.55 µM	2.98 µM	9.08 µM	24.7 µM	2.58 µM	9.7 µM	2.8 µM	11.6 µM	1.4 µM	3.5 µM	12.7 µM	43.6 µM	0.71 µM	3.55 µM
CS(=O)(=O)Nc1cc(-c2ccc3ncnc(Nc4ccc5c(cnn5Cc5ccccc5F)c4)c3c2)cnc1Cl	1.47 µM	5.37 µM	2.2 µM	8.46 µM	1.28 µM	5.44 µM	2.39 µM	9.09 µM	3.23 µM	> 100 µM	2.66 µM	15.6 µM	1.96 µM	8.51 µM	0.575 µM	4.31 µM	3.28 µM	55 µM	1.31 µM	> 23.6 µM
CCOC1C=CCCO1 (stereo not drawn)	–	> 100 µM	–	9.11 µM	–	> 100 µM	–	> 100 µM	–	38.8 µM	–	> 100 µM	–	> 100 µM	–	> 100 µM	–	> 100 µM	–	> 100 µM
NCCCCN(Cc1nc2ccccc2[nH]1)[C@H]1CCCc2cccnc21	17.8 µM	47.4 µM	16.9 µM	38.2 µM	25.3 µM	> 75.3 µM	7.65 µM	26.2 µM	12 µM	> 72.7 µM	13.9 µM	30.2 µM	12.8 µM	30.7 µM	12.6 µM	> 100 µM	24.3 µM	> 100 µM	5.52 µM	> 93.2 µM
CN(C)c1ccc(O)c2c1C[C@H]1C[C@H]3[C@H](N(C)C)C(=O)C(C(N)=O)=C(O)[C@@]3(O)C(=O)C1=C2O	3.35 µM	16.9 µM	4.19 µM	17.8 µM	16 µM	> 100 µM	5.51 µM	20.5 µM	3.65 µM	79.8 µM	5.09 µM	65.9 µM	2.46 µM	7.99 µM	3.42 µM	27.8 µM	4.02 µM	94 µM	6.61 µM	93.2 µM
CNc1nc(N(C)C)nc(N(C)C)n1	> 100 µM and 952 µM	> 100 µM and 3640 µM	> 100 µM and 1520 µM	> 100 µM and 3590 µM	> 100 µM and 2270 µM	> 100 µM and 4960 µM	> 100 µM and 1780 µM	> 100 µM and 4010 µM	> 100 µM and 828 µM	> 100 µM and 3250 µM	–	2600 µM	> 100 µM and 1130 µM	> 100 µM and 2440 µM	> 100 µM and 1100 µM	> 100 µM and 2640 µM	> 100 µM and 936 µM	> 100 µM and 2770 µM	–	3960 µM
COc1ccc(/C=C/C(=O)c2cc3c(N)c(C(=O)Nc4ccccc4)sc3nc2C)cc1	0.119 µM	> 50 µM	0.785 µM	6.53 µM	1.27 µM	> 50 µM	–	–	0.688 µM	20.1 µM	0.0907 µM	> 50 µM	0.232 µM	> 50 µM	0.252 µM	> 50 µM	0.205 µM	8.53 µM	0.184 µM	> 50 µM
CCOC(=O)C#Cc1c(CC(=O)OCC)nnn1[C@H]1O[C@@H](CO)[C@@H]2OC(C)(C)O[C@@H]21	1.84 µM	4.14 µM	17.7 µM	31.8 µM	1.76 µM	3.39 µM	2.05 µM	4.06 µM	2.82 µM	10.3 µM	3.58 µM	12.8 µM	43.6 µM	> 100 µM	16.1 µM	36.6 µM	2.52 µM	7.02 µM	16.1 µM	31 µM
N=C(N)c1ccc(-c2ccc(-c3cccs3)s2)nc1	1.7 µM	3.22 µM	0.771 µM	2.08 µM	1.03 µM	2.33 µM	0.248 µM	1.09 µM	0.545 µM	3.92 µM	1.86 µM	3.63 µM	–	–	1.76 µM	3.56 µM	1.93 µM	4.47 µM	1.88 µM	6.11 µM
CC1/C(=N/Nc2ccc([N+](=O)[O-])cc2)CC2C3(C)CCC2(C(C)C(=O)O)C(=O)C13 (stereo not drawn)	6.51 µM	> 100 µM	2.39 µM	51.7 µM	9.98 µM	> 100 µM	9 µM	> 100 µM	4.31 µM	> 100 µM	11.2 µM	> 100 µM	4.74 µM	> 100 µM	> 100 µM	> 100 µM	4.22 µM	> 100 µM	34.4 µM	> 100 µM
CC(C)CCc1c(Cl)nc(Cl)nc1Cl	–	24.7 µM	–	64 µM	–	35.5 µM	–	–	–	35.3 µM	–	15.3 µM	–	34.4 µM	–	37.5 µM	–	> 100 µM	–	> 100 µM
